Assay [1] deals with T1, EGFR L858R (BaF3-L858R cells) (Homo sapiens, UniProt P00533, L858R).
T1 construct: host or cells: BaF3
In words: EGFR degradation in BaF3-L858R cells (HTRF assay). The format is cell-based. The note with it: 16 h treatment; for DC50: IC50(DC50) of EGFR degradation; for Dmax: maximum percentage of inhibition (degradation). Summed up:
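BaF3-L858R cells were exposed for 16 h at 37° C to 8 doses, 5-fold dilutions starting at 10 uM final, in 0.1% DMSO medium. Lysates were incubated overnight with HTRF antibodies and read at 665/620 nm. Degradation was taken relative to DMSO control, and DC50 and Dmax came from a four-parameter fit.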

Assay [2] has as its target T2, EGFR-L858R/C797S (H1975-clone #8 cells) (Homo sapiens, UniProt P00533, C797S/L858R).
T2 construct: expressed in transfected cells; host or cells: H1975 (lentiviral transduction, endogenous EGFR knocked out, single clone #8)
Description: EGFR degradation in H1975-clone#8 (L858R/C797S) cells (HTRF assay). The format is cell-based. Particulars: 16 h treatment; for DC50: IC50(DC50) of EGFR degradation; for Dmax: maximum percentage of inhibition (degradation). Summed up: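 H1975 cells engineered to carry only homozygous exogenous EGFR L858R/C797S (clone #8) treated 16 h at 37 °C with compound, 8 doses from 10 uM in 5-fold steps, 0.1% DMSO. Remaining EGFR in lysates measured by HTRF; degradation percentage relative to DMSO control, DC50 and Dmax from 4-parameter fit.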

This passage reports DC50 and Dmax results from patent US20260077051A1, “COMPOUNDS FOR THE DEGRADATION OF EGFR KINASE” (BeOne Medicines I GmbH, priority 2023, published 2026).

T1 sequence (P00533 25-1210 L858R): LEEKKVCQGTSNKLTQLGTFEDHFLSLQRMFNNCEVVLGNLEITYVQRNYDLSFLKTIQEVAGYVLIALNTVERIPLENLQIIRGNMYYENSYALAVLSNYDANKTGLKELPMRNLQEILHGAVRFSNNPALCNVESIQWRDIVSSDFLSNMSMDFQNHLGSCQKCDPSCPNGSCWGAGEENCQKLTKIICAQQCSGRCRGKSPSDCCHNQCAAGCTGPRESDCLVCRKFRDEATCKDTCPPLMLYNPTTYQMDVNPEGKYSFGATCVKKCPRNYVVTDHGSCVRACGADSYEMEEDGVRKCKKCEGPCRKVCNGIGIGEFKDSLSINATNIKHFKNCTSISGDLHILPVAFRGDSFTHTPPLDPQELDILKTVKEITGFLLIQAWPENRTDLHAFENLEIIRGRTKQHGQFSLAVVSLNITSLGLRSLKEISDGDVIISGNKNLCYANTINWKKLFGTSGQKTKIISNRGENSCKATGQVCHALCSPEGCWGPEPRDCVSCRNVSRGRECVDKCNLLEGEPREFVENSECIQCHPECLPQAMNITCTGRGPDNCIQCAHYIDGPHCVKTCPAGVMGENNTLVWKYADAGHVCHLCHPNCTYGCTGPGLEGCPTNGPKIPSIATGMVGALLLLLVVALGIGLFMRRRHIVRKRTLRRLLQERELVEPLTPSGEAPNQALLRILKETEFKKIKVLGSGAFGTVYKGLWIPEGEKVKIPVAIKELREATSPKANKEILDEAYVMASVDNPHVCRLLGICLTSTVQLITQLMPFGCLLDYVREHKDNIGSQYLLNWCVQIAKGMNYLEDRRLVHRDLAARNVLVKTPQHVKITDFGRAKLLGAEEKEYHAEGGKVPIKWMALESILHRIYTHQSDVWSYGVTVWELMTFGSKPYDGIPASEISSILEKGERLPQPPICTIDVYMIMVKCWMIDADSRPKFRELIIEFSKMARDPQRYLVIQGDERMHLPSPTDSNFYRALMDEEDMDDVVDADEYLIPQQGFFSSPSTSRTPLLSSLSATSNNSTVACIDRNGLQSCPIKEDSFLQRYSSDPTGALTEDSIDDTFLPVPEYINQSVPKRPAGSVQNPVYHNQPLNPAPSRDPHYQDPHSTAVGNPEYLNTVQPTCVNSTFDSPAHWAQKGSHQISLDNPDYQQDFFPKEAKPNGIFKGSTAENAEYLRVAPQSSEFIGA
T2 sequence (P00533 25-1210 C797S/L858R): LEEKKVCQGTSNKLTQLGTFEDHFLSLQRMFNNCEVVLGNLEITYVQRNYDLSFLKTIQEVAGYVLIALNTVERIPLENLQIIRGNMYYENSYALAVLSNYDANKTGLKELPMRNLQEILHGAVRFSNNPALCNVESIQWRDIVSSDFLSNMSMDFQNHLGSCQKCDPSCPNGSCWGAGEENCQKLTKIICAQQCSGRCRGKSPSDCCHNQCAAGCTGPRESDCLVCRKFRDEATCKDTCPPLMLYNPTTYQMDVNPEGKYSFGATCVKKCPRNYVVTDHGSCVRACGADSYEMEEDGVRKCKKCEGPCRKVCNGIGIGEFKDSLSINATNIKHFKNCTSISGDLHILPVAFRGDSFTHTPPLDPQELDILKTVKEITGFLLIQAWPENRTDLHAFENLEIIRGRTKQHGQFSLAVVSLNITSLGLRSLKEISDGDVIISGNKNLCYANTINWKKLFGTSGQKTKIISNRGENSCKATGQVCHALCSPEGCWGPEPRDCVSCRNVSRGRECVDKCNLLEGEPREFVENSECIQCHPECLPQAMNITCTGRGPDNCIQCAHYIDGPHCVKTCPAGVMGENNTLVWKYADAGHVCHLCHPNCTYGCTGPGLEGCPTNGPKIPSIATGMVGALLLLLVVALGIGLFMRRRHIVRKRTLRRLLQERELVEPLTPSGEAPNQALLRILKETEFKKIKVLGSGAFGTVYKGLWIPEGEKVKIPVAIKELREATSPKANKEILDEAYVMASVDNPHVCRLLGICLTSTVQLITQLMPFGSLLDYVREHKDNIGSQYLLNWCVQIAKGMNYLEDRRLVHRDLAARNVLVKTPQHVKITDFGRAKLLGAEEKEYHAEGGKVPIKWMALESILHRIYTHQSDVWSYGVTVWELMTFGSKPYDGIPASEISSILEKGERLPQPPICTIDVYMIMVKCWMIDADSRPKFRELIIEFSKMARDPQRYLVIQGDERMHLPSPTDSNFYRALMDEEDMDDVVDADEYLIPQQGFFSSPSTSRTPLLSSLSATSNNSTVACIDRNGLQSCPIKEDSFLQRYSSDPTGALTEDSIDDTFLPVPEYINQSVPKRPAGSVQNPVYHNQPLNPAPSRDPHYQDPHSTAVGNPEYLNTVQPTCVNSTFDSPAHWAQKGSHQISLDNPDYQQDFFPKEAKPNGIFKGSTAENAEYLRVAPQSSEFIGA

For the molecule `Cc1cc2cc(n1)-c1cnn(C)c1OCC[C@]1(C)C[C@H]1CN1/C(=N/C2=O)Nc2ccc(N3CCN([C@@H]4CCN(c5cccc6c5C(C)(C)C(=O)N6C5CCC(=O)NC5=O)C[C@@H]4F)CC3)cc21` (stereo partly drawn) [Example 57, 3-(4-((3S,4R)-3-fluoro-4-(4-((7^1R,7^2S,E)-1^1,2^6,7^2-trimethyl-3-oxo-5^2,5^3-dihydro-1^1H,5^1H-10-oxa-4-aza-5 (2,1)-benzo[d]imidazola-2 (2,4)-pyridina-1 (4,5)-pyrazola-7 (1,2)-cyclopropanacyclodecaphane-5^6-yl)piperazin-1-yl)piperidin-1-yl)-3,3-dimethyl-2-oxoindolin-1-yl)piperidine-2,6-dione], in assay [1], the DC50 worked out at 3.2 nM and the Dmax was 91.3%. In assay [2], this molecule yielded a DC50 of 4.21 nM and a Dmax of 61.7%.

In assay [1], `Cc1cc2cc(n1)-c1cnn(C)c1OCC[C@H]1C[C@@H]1CN1/C(=N/C2=O)Nc2ccc(N3CCN([C@@H]4CCN(c5c(C)cc(C6CCC(=O)NC6=O)nc5C)C[C@@H]4F)CC3)cc21` (stereo partly drawn) [Example 33, 3-(5-((3S,4R)-4-(4-((7^1S,7^2R,E)-1^1,2^6-dimethyl-3-oxo-5^2,5^3-dihydro-1^1H,5^1H-10-oxa-4-aza-5 (2,1)-benzo[d]imidazola-2 (2,4)-pyridina-1 (4,5)-pyrazola-7 (1,2)-cyclopropanacyclodecaphane-5^6-yl)piperazin-1-yl)-3-fluoropiperidin-1-yl)-4,6-dimethylpyridin-2-yl)piperidine-2,6-dione] yielded a DC50 of 8.38 nM and a Dmax of 89.1%. In assay [2], this molecule gave a DC50 of 4.74 nM and a Dmax of 44.3%.

In assay [1], `Cc1cc2cc(n1)-c1cnn(C)c1OCC[C@]1(C)C[C@H]1CN1/C(=N/C2=O)Nc2ccc(N3CCN([C@@H]4CCN(c5cnc(C6CCC(=O)NC6=O)cc5C)C[C@@H]4F)CC3)cc21` (stereo partly drawn) [Example 59, 3-(5-((3S,4R)-3-fluoro-4-(4-((7^1R,7^2S,E)-1^1,2^6,7^2-trimethyl-3-oxo-5^2,5^3-dihydro-1^1H,5^1H-10-oxa-4-aza-5 (2,1)-benzo[d]imidazola-2 (2,4)-pyridina-1 (4,5)-pyrazola-7 (1,2)-cyclopropanacyclodecaphane-5^6-yl)piperazin-1-yl)piperidin-1-yl)-4-methylpyridin-2-yl)piperidine-2,6-dione] yielded a DC50 of 3.54 nM and a maximal degradation (Dmax) of 95.5%. In assay [2], this molecule had a DC50 of 0.635 nM and a Dmax of 72.7%.

In assay [1], `Cc1cc2cc(n1)-c1cnn(C)c1OCC[C@H]1C[C@@H]1CN1/C(=N/C2=O)Nc2ccc(N3CCN(CCc4cc(F)c([C@H]5CCC(=O)NC5=O)c(F)c4)C(C4CCOC4)C3)cc21` (stereo partly drawn) [Example 35, (3R)-3-(4-(2-(4-((7^1S,7^2R,E)-1^1,2^6-dimethyl-3-oxo-5^2,5^3-dihydro-1^1H,5^1H-10-oxa-4-aza-5 (2,1)-benzo[d]imidazola-2 (2,4)-pyridina-1 (4,5)-pyrazola-7 (1,2)-cyclopropanacyclodecaphane-5^6-yl)-2-(tetrahydrofuran-3-yl)piperazin-1-yl)ethyl)-2,6-difluorophenyl)piperidine-2,6-dione] displayed a DC50 of 22 nM and a Dmax of 59%. In assay [2], this molecule returned a DC50 of 8.44 nM and a Dmax of 41.4%.

On to `Cc1cc2cc(n1)-c1cnn(C)c1OCC[C@]1(C)C[C@H]1CN1/C(=N/C2=O)Nc2ccc(N3CCN([C@@H]4CCN(c5cc(F)c(C6CCC(=O)NC6=O)nc5C)C[C@@H]4F)CC3)cc21` (stereo partly drawn) [Example 43, 3-(3-fluoro-5-((3S,4R)-3-fluoro-4-(4-((7^1R,7^2S,E)-1^1,2^6,7^2-trimethyl-3-oxo-5^2,5^3-dihydro-1^1H,5^1H-10-oxa-4-aza-5 (2,1)-benzo[d]imidazola-2 (2,4)-pyridina-1 (4,5)-pyrazola-7 (1,2)-cyclopropanacyclodecaphane-5^6-yl)piperazin-1-yl)piperidin-1-yl)-6-methylpyridin-2-yl)piperidine-2,6-dione], for which, in assay [1], half-maximal degradation (DC50) was put at 1.74 nM and the Dmax amounted to 86.2%. In assay [2], this molecule returned a DC50 of 2.81 nM and a Dmax of 88.8%.

In assay [1], `Cc1cc2cc(n1)-c1cnn(C)c1OCC[C@]1(C)C[C@H]1CN1/C(=N/C2=O)Nc2ccc(N3CCN([C@H]4CCN(c5cc(F)c(C6CCC(=O)NC6=O)nc5C)C[C@H]4F)CC3)cc21` (stereo partly drawn) [Example 61, 3-(3-fluoro-5-((3R,4S)-3-fluoro-4-(4-((7^1R,7^2S,E)-1^1,2^6,7^2-trimethyl-3-oxo-5^2,5^3-dihydro-1^1H,5^1H-10-oxa-4-aza-5 (2,1)-benzo[d]imidazola-2 (2,4)-pyridina-1 (4,5)-pyrazola-7 (1,2)-cyclopropanacyclodecaphane-56-yl)piperazin-1-yl)piperidin-1-yl)-6-methylpyridin-2-yl)piperidine-2,6-dione] showed a DC50 of 0.99 nM and a Dmax of 91.8%. Also, in assay [2], the DC50 was 1.29 nM and the Dmax was 80.8%.

Turning to `Cc1cc2cc(n1)-c1cnn(C)c1OCC[C@H]1C[C@@H]1CN1/C(=N/C2=O)Nc2ccc(N3CCN(C4CN(C5CCN(c6c(C)cc(C7CCC(=O)NC7=O)nc6C)CC5)C4)C[C@H]3C)cc21` (stereo partly drawn) [Example 24, 3-(5-(4-(3-((R)-4-((7^1S,7^2R,E)-1^1,2^6-dimethyl-3-oxo-5^2,5^3-dihydro-1^1H,5^1H-10-oxa-4-aza-5 (2,1)-benzo[d]imidazola-2 (2,4)-pyridina-1 (4,5)-pyrazola-7 (1,2)-cyclopropanacyclodecaphane-5^6-yl)-3-methylpiperazin-1-yl)azetidin-1-yl)piperidin-1-yl)-4,6-dimethylpyridin-2-yl)piperidine-2,6-dione], the DC50 in assay [1] came out at 3.66 nM; in assay [2], 2.08 nM. The Dmax in assay [1] was found to be 80%; in assay [2] it was 49.8%.

For the molecule `Cc1cc2cc(n1)-c1cnn(C)c1OCC[C@H]1C[C@@H]1CN1/C(=N/C2=O)Nc2ccc(N3CCN([C@H]4CCN(c5cnc(C6CCC(=O)NC6=O)cc5C)C[C@H]4F)CC3)cc21` (stereo partly drawn) [Example 11, 3-(5-((3R,4S)-4-(4-((7^1S,7^2R,E)-1^1,2^6-dimethyl-3-oxo-5^2,5^3-dihydro-1^1H,5^1H-10-oxa-4-aza-5 (2,1)-benzo[d]imidazola-2 (2,4)-pyridina-1 (4,5)-pyrazola-7 (1,2)-cyclopropanacyclodecaphane-5^6-yl)piperazin-1-yl)-3-fluoropiperidin-1-yl)-4-methylpyridin-2-yl)piperidine-2,6-dione], in assay [1], half-maximal degradation (DC50) was put at 7.62 nM and the Dmax worked out at 71.2%. In assay [2], this molecule gave a DC50 of 1.44 nM and a Dmax of 51.8%.

Turning to `Cc1cc2cc(n1)-c1cnn(C)c1OCC[C@]1(C)C[C@H]1CN1/C(=N/C2=O)Nc2ccc(N3CCC(C(=O)N4CCC(Oc5cc(F)c([C@H]6CCC(=O)NC6=O)c(F)c5)CC4)CC3)cc21` [Example 29, (R)-3-(2,6-difluoro-4-((1-(1-((7^1R,7^2S,E)-1^1,2^6,7^2-trimethyl-3-oxo-5^2,5^3-dihydro-1^1H,5^1H-10-oxa-4-aza-5 (2,1)-benzo[d]imidazola-2 (2,4)-pyridina-1 (4,5)-pyrazola-7 (1,2)-cyclopropanacyclodecaphane-5^6-yl)piperidine-4-carbonyl)piperidin-4-yl)oxy)phenyl)piperidine-2,6-dione], the DC50 is 3.9 nM in assay [1] and 0.986 nM in assay [2]. The Dmax in assay [1] is 67.8%; in assay [2] it was 49.2%.
